Experimental data reported in the supplement of paper PMC10307832.

How the values were obtained:
Assay in all cases: relative viability (nuclei count vs DMSO), 5 days (fraction); higher = more cells survive
201T = test system: 201T
Summary of the method: (§1)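 Relative viability divides the nuclei count in treated wells by that in vehicle wells. Lung cancer cell lines were seeded in 1536-well plates, dosed by pin tool the next day, and fixed and stained after 5 days in one step with final 0.05% Triton X-100, 1% formaldehyde and 1 ug/ml Hoechst. Dosing was a single drug or a fixed anchor-drug dose plus five library-drug doses (not always all listed) in √10 steps, and values are medians of duplicate plates imaged at 4×.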

ABC-1 = test system: ABC-1
Summary of the method: as §1

CAL-12T = test system: CAL-12T
Summary of the method: as §1

COR-L23 = test system: COR-L23
Summary of the method: as §1

HCC-44 = test system: HCC-44
Summary of the method: as §1

HOP-62 = test system: HOP-62
Summary of the method: as §1

LC-2-ad = test system: LC-2-ad
Summary of the method: as §1

LCLC-103H = test system: LCLC-103H
Summary of the method: as §1

NCI-H1355 = test system: NCI-H1355
Summary of the method: as §1

NCI-H1651 = test system: NCI-H1651
Summary of the method: as §1

NCI-H1666 = test system: NCI-H1666
Summary of the method: as §1

Compound `O=C(O)CCCCC(CCSCc1ccccc1)SCc1ccccc1` (configuration not stated) [CPI-613] + CC(C)C[C@H](NC(=O)[C@H](Cc1ccccc1)NC(=O)c1cnccn1)B(O)O [Bortezomib] (partner 0.002 µM) has a relative viability (201T; first compound 5 µM) of 1.08, a relative viability (201T; first compound 15.81 µM) of 1.03 and a relative viability (201T; first compound 50 µM) of 1.09. The relative viability (201T; first compound 158.11 µM) was 0.995, the relative viability (201T; first compound 500 µM) was 0.949 and the relative viability (ABC-1; first compound 5 µM) was 0.305. It also gave a relative viability (ABC-1; first compound 15.81 µM) of 0.298, a relative viability (ABC-1; first compound 50 µM) of 0.302 and a relative viability (ABC-1; first compound 158.11 µM) of 0.232. It also gave a relative viability (ABC-1; first compound 500 µM) of 0.242, a relative viability (CAL-12T; first compound 5 µM) of 0.866 and a relative viability (CAL-12T; first compound 15.81 µM) of 0.774. The relative viability (CAL-12T; first compound 50 µM) was 0.758, the relative viability (CAL-12T; first compound 158.11 µM) was 0.498 and the relative viability (CAL-12T; first compound 500 µM) was 0.277. The relative viability (COR-L23; first compound 5 µM) was 0.938, the relative viability (COR-L23; first compound 15.81 µM) was 0.941 and the relative viability (COR-L23; first compound 50 µM) was 1. The relative viability (COR-L23; first compound 158.11 µM) was 0.408, the relative viability (COR-L23; first compound 500 µM) was 0.0074 and the relative viability (HCC-44; first compound 5 µM) was 0.878. The relative viability (HCC-44; first compound 15.81 µM) was 0.832, the relative viability (HCC-44; first compound 50 µM) was 0.913 and the relative viability (HCC-44; first compound 158.11 µM) was 0.596. The relative viability (HCC-44; first compound 500 µM) was 0.0155, the relative viability (HOP-62; first compound 5 µM) was 0.511 and the relative viability (HOP-62; first compound 15.81 µM) was 0.545. The relative viability (HOP-62; first compound 50 µM) was 1.26, the relative viability (HOP-62; first compound 158.11 µM) was 0.464 and the relative viability (HOP-62; first compound 500 µM) was 0.0422. For the same compound, the relative viability (LC-2-ad; first compound 5 µM) was 0.621, the relative viability (LC-2-ad; first compound 15.81 µM) was 0.932 and the relative viability (LC-2-ad; first compound 50 µM) was 0.979. It also gave a relative viability (LC-2-ad; first compound 158.11 µM) of 0.259, a relative viability (LC-2-ad; first compound 500 µM) of 0.0023 and a relative viability (LCLC-103H; first compound 5 µM) of 1.08. It also gave a relative viability (LCLC-103H; first compound 15.81 µM) of 0.94, a relative viability (LCLC-103H; first compound 50 µM) of 0.966 and a relative viability (LCLC-103H; first compound 158.11 µM) of 0.985. The relative viability (LCLC-103H; first compound 500 µM) was 1.06, the relative viability (NCI-H1355; first compound 5 µM) was 1.2 and the relative viability (NCI-H1355; first compound 15.81 µM) was 1.22. It also gave a relative viability (NCI-H1355; first compound 50 µM) of 1.23, a relative viability (NCI-H1355; first compound 158.11 µM) of 0.646 and a relative viability (NCI-H1355; first compound 500 µM) of 0.611. The relative viability (NCI-H1651; first compound 5 µM) was 0.91, the relative viability (NCI-H1651; first compound 15.81 µM) was 0.9 and the relative viability (NCI-H1651; first compound 50 µM) was 0.866. For the same compound, the relative viability (NCI-H1651; first compound 158.11 µM) was 0.914, the relative viability (NCI-H1651; first compound 500 µM) was 1 and the relative viability (NCI-H1666; first compound 5 µM) was 0.883. For the same compound, the relative viability (NCI-H1666; first compound 15.81 µM) was 0.603.
